Test results: US8956824B2, “Methods for identifying allosteric modulators of ship polypeptides” (British Columbia Cancer Agency Branch, priority 2006, dated 2015)
“Also recorded” adds a separate entry of the source.

Target: T1, PH domain deleted SHIP1 (Mus musculus, UniProt Q9ES52, DEL292-400/E403A/P402A/Q401A)
T1 construct: Full length, wild-type SHIP1 enzyme (wt) or SHIP1 enzyme in which the PH or C2 domains were deleted; His6 (N); made in house; 293T cells are stated only for the wild-type enzyme
T1 sequence (Q9ES52 with tags, fused parts or gaps DEL292-400/Q401A/P402A/E403A): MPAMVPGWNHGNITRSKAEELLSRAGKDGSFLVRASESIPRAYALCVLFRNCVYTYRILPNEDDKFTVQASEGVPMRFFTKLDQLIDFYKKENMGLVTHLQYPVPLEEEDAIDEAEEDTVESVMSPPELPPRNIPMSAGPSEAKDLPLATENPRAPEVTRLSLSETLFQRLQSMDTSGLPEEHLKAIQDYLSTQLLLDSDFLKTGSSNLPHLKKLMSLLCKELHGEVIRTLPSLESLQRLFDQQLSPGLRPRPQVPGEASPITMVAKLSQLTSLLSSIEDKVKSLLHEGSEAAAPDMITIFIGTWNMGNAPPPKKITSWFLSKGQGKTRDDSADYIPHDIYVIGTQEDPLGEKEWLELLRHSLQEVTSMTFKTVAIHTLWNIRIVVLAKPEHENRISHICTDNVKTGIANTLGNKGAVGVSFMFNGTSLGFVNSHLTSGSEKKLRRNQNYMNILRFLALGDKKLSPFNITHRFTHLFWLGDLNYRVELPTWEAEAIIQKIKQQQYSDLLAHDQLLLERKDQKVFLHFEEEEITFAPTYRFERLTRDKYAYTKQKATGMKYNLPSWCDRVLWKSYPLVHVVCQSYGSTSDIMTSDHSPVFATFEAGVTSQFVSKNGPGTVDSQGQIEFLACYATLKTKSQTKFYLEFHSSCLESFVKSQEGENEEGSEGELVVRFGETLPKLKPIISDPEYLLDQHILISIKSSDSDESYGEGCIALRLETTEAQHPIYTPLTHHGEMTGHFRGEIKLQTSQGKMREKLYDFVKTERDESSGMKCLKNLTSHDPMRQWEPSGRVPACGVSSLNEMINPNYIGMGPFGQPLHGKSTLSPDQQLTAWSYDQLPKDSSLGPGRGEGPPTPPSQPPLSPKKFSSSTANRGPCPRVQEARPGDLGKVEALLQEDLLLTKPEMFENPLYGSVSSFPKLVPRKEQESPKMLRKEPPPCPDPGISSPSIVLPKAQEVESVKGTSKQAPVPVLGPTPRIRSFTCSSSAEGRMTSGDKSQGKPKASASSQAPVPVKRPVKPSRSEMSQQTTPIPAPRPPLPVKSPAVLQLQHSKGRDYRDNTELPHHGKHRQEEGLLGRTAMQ
Assay: In vitro SHIP enzyme assay, PH domain deleted SHIP1
Format: biochemical
Conditions: FIG. 10, FIG. 14A
From the text: The SHIP1 PH domain deletion mutant and an isolated PH domain construct were generated using techniques similar to those used for the C2 domain. More specifically, the PH domain (amino acids 984-1319) was deleted from the murine SHIP (mSHIP) cDNA as follows: using pME18S-mSHIP1 as a template, a 527 by PCR fragment (“Upstream Fragment”) was generated using the indicated primers to generate a fragment corresponding to sequence immediately upstream of the SHIP PH domain within which resides a unique AccI restriction cut site. A Nod restriction cut site was also introduced to the 3′ end of this fragment. The PCR product was digested with Acd and Nod, and gel purified. Using pME18S-mSHIP1 as a template, a 776 by PCR fragment (“Downstream Fragment”) was generated using the indicated primers corresponding to sequence immediately downstream of the SHIP PH domain within which resides a unique ClaI restriction cut site. A Nod restriction cut site was introduced to the 5′ end of this fragment. […]
In vitro SHIP enzyme assay. […] The reaction was allowed to proceed for 20 min at 37° C. and the amount of inorganic phosphate released assessed by the addition of Malachite Green reagent followed by an absorbance measurement at 650 nm (15). […] Enzyme data are expressed as the mean of triplicates+/−SEM. […]

Cc1cc(O)cc2c1[C@]1(C)CC[C@H]3C(C)(C)CCC[C@]3(C)[C@H]1C2 [AQX-MN100]
activation of SHIP1 with PH domain deleted: attenuates but does not prevent activation; also recorded: abrogates ability of SHIP to be activated

phosphatidylinositol-3,4-bisphosphate [PI-3,4-P2, reference compound]
activation of SHIP1 with PH domain deleted: abrogates ability of SHIP to be activated
